Data as given in patent publication US6984641B2, “Carboline derivatives as PDE5 inhibitors” (Lilly Icos LLC., priority 2001, dated 2006).

What was measured:
human recombinant PDE5 = human recombinant PDE5 (Homo sapiens, UniProt O76074); assay: Inhibitory effect on cGMP-PDE (one-step assay, 8-[H3]-cGMP), human recombinant PDE5; format: biochemical
Method: The compounds of the present invention were tested for an ability to inhibit PDE5. The ability of a compound to inhibit PDE5 activity is related to the IC50 yalue for the compound, i.e., the concentration of inhibitor required for 50% inhibition of enzyme activity. The IC50 value for compounds of the present invention were determined using recombinant human PDE5. […]
Cell pellets (29 g) were thawed on ice with an equal volume of Lysis Buffer (25 mM Tris HCl, pH 8, 5 mM MgCl2, 0.25 mM DTT, 1 mM benzamidine, and 10 μM ZnSO4). Cells were lysed in a Microfluidizer® (Microfluidics Corp.) using nitrogen at 20,000 psi. The lysate was centrifuged and filtered through 0.45 μm disposable filters. The filtrate was applied to a 150 mL column of Q SEPHAROSE® Fast-Flow (Pharmacia). The column was washed with 1.5 volumes of Buffer A (20 mM Bis-Tris Propane, pH 6.8, 1 mM MgCl2, 0.25 mM DTT, 10 μM ZnSO4) and eluted with a step gradient of 125 mM NaCl in Buffer A followed by a linear gradient of 125–1000 mM NaCl in Buffer A. Active fractions from the linear gradient were applied to a 180 mL hydroxyapatite column in Buffer B (20 mM Bis-Tris Propane (pH 6.8), 1 mM MgCl2, 0.25 mM DTT, 10 μM ZnSO4, and 250 mM KCl). After loading, the column was washed with 2 volumes of Buffer B and eluted with a linear gradient of 0–125 mM potassium phosphate in Buffer B. Active fractions were pooled, precipitated with 60% ammonium sulfate, and resuspended in Buffer C (20 mM Bis-Tris Propane, pH 6.8, 125 mM NaCl, 0.5 mM DTT, and 10 μM ZnSO4). The pool was applied to a 140 mL column of SEPHA-CRYL® S-300 HR and eluted with Buffer C. Active fractions were diluted to 50% glycerol and stored at −20° C.
(§1) CGMP-PDE activity of compounds of the present invention was measured using a one-step assay adapted from Wells et al., Biochim. Biophys. Acta, 384, 430 (1975). The reaction medium contained 50 mM Tris-HCl, pH 7.5, 5 mM magnesium acetate, 250 μg/ml 5′-Nucleotidase, 1 mM EGTA, and 0.15 μM 8-[H^3]-cGMP. Unless otherwise indicated, the enzyme used was a human recombinant PDE5 (ICOS Corp., Bothell, Wash.).
(§2) Compounds of the invention were dissolved in DMSO finally present at 2% in the assay.

PDE5 (bovine aorta) = molecular target: T1, PDE5 (bovine aorta) (Bos taurus, UniProt Q28156); assay: Inhibitory effect on cGMP-PDE (one-step assay), enzyme from bovine aorta; format: biochemical; conditions: vs. bovine aorta (footnote 1)
T1 construct: from tissue; host or cells: bovine aorta
Method: as §1, §2

Row | IC50 (human recombinant PDE5) [nM] | IC50 (PDE5 (bovine aorta)) [nM] | Compound
1 | 70 | – | O=C1COC[C@@H]2Cc3c([nH]c4ccccc34)[C@H](c3ccc4c(c3)OCO4)N12 (racemic) [Example 3, (+−,cis)-10-Benzo[1,3]dioxol-5-yl-5a,6,10,11-tetrahydro-5H-7-oxa-9a,11-diazabenzo[b]-fluoren-9-one]
2 | 300 | – | COc1ccc([C@H]2c3[nH]c4ccccc4c3C[C@H]3COCC(=O)N32)cc1 (racemic) [Example 4, (+−,cis)-10-(4-Methoxyphenyl)-5a,6,10,11-tetrahydro-5H-7-oxa-9a,11-diazabenzo[b]fluoren-9-one]
3 | 550 | – | O=C1CCC(=O)N2[C@H](c3ccc4c(c3)OCO4)c3[nH]c4ccccc4c3C[C@@H]12 (racemic) [Example 6, (+−,trans)-6-Benzo[1,3]dioxol-5-yl-5,6,9,10,11a,12-hexahydroindolo[3,2-b]quinolizine-8,11-dione]
4 | 93 | – | CN1CN2[C@H](c3ccc4c(c3)OCO4)c3[nH]c4ccccc4c3C[C@@H]2C(=O)N1C [Example 1, (5aR,10R)-10-Benzo[1,3]dioxol-5-yl-7,8-dimethyl-5,5a,8,9,10,11-hexahydro-7H-7,8,9a,11-tetraazabenzo[b]floren-6-one]
5 | – | 340 | COc1ccc(C2c3[nH]c4ccccc4c3CC3C(=O)N(Cc4ccccc4)C(=O)CN32)cc1 (stereo not drawn) [Example 2, 2-Benzyl-6-(4-methoxyphenyl)-6,7,12,12a-tetrahydro-pyrazino[1′,2′:1,6]pyrido[3,4-b]indole-1,3-dione]
6 | 80 | – | COC(=O)C1CC(=O)N2[C@H](c3ccc4c(c3)OCO4)c3[nH]c4ccccc4c3C[C@@H]2C1O (stereo partly drawn) [Example 5, (+−,cis)-6-Benzo[1,3]dioxol-5-yl-11-hydroxy-8-oxa-5,6,8,9,11a,12-hexahydroindolo[3,2-b]-guinolizine-10-carboxylic acid methyl ester]
7 | 50 | – | O=C1OCC(=O)N2[C@H](c3ccc4c(c3)OCO4)c3[nH]c4ccccc4c3C[C@H]12 [Example 7, (6R,11aS)-10-Benzo[1,3]dioxol-5-yl-5,5a,10,11-tetrahydro-7-oxa-9a,11-diazabenzo[b]fluorene-6.9-dione]
8 | – | 250 | O=C1CC(=O)N2CCc3c([nH]c4ccccc34)C2C1 (stereo not drawn) [Example 8, 6,7,12,12b-Tetrahydro-1H-indolo[2,3-a]-quinolizine-2,4-dione]
9 | – | 300 | COc1cc2c(cc1O)CN1CCc3c([nH]c4ccccc34)C1C2 (stereo not drawn) [Example 15, 2-Methoxy-5,7,8,13,13b,14-hexahydroindolo-[2′,3′:3,4]pyrido[1,2-b]isoquinolin-3-ol]
10 | – | 900 | O=C1Nc2ccccc2C2c3[nH]c4ccccc4c3CCN12 (stereo not drawn) [Example 16, 7,8,13,13b-Tetrahydro-5H-5,6a,13-triazaindeno-[1,2-c]phenanthren-6-one]
11 | – | 70 | Cn1c2ccccc2c2c(=O)n3c(cc21)-c1[nH]c2ccccc2c1CC3 [Example 18]
12 | 180 | – | CC1=CCC(/C=C/C(=O)N2CCc3c([nH]c4ccccc34)C2c2ccc3c(c2)OCO3)CC1 (stereo not drawn) [Example 20]
13 | 3 | – | Cc1cccc2c3c([nH]c12)C(c1ccc2c(c1)OCO2)N(C(=O)/C=C/c1ccc(C(=O)O)cc1)CC3 (stereo not drawn) [Example 21]
14 | 26 | – | O=C(/C=C/c1ccccc1)N1CCc2c([nH]c3cc(Br)ccc23)C1c1ccc2c(c1)OCO2 (stereo not drawn) [Example 22]
15 | 690 | – | O=C(/C=C/c1ccccc1)N1CCc2c([nH]c3cc(-c4ccccc4)ccc23)C1c1ccc2c(c1)OCO2 (stereo not drawn) [Example 23]
